Assay results published in patent publication US20220151983A1, “COMPOUNDS FOR INHIBITING FUCOSYLATION AND METHODS FOR USING THE SAME” (SCORE PHARMA, INC., priority 2019, published 2022).
Structures can show the parent of a compound that is named as a salt. Where two headings read alike, the source gives them in different places.

Tests used:
[1] = tested on: CHO cells producing an anti-IL8 IgG monoclonal antibody (ATCC CRL-12445); test: Reduction of fucosylation of anti-IL8 mAb produced by CHO cells, LC-MS analysis; assay type: cell-based
Source text: Briefly, Epicatechin Monogallate (ECG), Epicatechin-3-Monogallate (ECGC) and Aurin Tricarboxylic Acid (ATA) were included in the cell culture media and added to CHO cells producing an anti-IL8 IgG monoclonal antibody (mAb) obtained from [NT] CRL-12445), which is also described in U.S. Pat. No. 6,025,158, which is hereby incorporated by reference in its entirety. After a specified period of time the cells were harvested and the anti-IL8 mAb purified by standard methods. Purified anit-IL8 mAbs were then reduced by the addition of dithiothreitol and subjected to LC-MS analysis to determine the level of fucosylation. The decrease in the level of anti-IL8 fucosylation are depicted in FIG. 20 AND FIG. 21.

[2] = target: T1, fucosyltransferase (FUT-8) (Homo sapiens, UniProt Q9BYC5); test: Inhibition of fucosyltransferase (FUT-8) activity, detection of fucosylation of the substrate protein; assay type: biochemical; settings: for inhibition at 10 µM: read-out: Primary Screen (10 μM), inhibition value
T1 sequence (Q9BYC5 1-575): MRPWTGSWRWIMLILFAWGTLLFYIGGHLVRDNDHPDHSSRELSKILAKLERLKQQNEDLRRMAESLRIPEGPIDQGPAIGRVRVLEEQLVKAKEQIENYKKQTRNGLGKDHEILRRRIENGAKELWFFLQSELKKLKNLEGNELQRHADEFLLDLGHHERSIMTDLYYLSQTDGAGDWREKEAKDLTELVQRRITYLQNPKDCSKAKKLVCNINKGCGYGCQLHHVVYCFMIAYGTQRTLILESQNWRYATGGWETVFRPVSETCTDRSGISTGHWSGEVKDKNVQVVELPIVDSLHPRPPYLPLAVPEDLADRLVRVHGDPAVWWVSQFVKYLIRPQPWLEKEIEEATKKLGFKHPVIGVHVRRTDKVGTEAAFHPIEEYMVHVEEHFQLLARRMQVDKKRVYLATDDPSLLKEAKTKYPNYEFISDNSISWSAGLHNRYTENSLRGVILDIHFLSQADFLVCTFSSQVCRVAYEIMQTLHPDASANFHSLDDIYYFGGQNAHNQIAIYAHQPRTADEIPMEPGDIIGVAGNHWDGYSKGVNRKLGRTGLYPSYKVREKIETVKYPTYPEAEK
Method: Briefly, a compound was combined with fucosyltransferase (FUT-8) and appropriate substrates and incubated for 1 hour. The reaction was terminated, and a detection reagent mixture was added to detect the amount of fucosylation of the substrate protein.

[3] = 10 μM compound, incubated for 1 hour
[4] = incubated for 1 hour, read-out: IC50 Value

| inhibition at 10 µM [2, 3] [%] | IC50 [2, 4] [µM] | Molecule | further results |
| --- | --- | --- | --- |
| 39 | > 10 | O=C(O[C@@H]1Cc2c(O)cc(O)cc2O[C@@H]1c1cc(O)c(O)c(O)c1)c1cc(O)c(O)c(O)c1 | reduction in fucosylation ([1]; 10 μM in cell culture media): 6% |
| 30 | > 10 | O=c1cc(-c2ccccc2)oc2cccc(O)c12 [Primuletin] | – |
| 47 | > 10 | C[n+]1c2cc(N)ccc2cc2ccc(N)cc21 [Acriflavinium] | – |
| – | < 10 | C=C1c2cccc(O)c2C(=O)C2=C(O)[C@]3(O)C(=O)C(C(N)=O)=C(O)[C@@H](N(C)C)[C@@H]3[C@@H](O)[C@H]12 [Methacycline, reference compound] | Primary Screen (10 μM), inhibition value [2, 3]: 82% |
| 30 | > 10 | O=c1cc(-c2ccccc2)oc2cc(O)cc(O)c12 [Chrysin] | – |
| 26 | > 10 | CCOc1ccc2nc3cc(N)ccc3c(N)c2c1 [Ethcridine Lactate, Etheridine Lactate] | – |
| 30 | > 10 | O=c1c(O)cccc2cc(O)c(O)c(O)c12 [Purpurogallin] | – |
| 82 | < 10 | O=C1C=C2CC3(O)COc4c(ccc(O)c4O)C3=C2C=C1O (centres unmarked) | – |
| 25 | > 10 | O=C(O[C@@H]1Cc2c(O)cc(O)cc2O[C@@H]1c1ccc(O)c(O)c1)c1cc(O)c(O)c(O)c1 [Epicatechin Monogallate] | reduction in fucosylation ([1]; 10-fold lower concentration than 100 μM): 13%; core fucosylated species, with concomitant rise in the afucosylated species ([1]; dose dependence): dose dependent decrease; reduction in fucosylation ([1]; maximum concentration (100 μM) in cell culture media): 25% |
| 88 | < 10 | O=C(O[C@@H]1Cc2c(O)cc(O)cc2O[C@@H]1c1cc(O)c(=O)c2c(O)c(O)cc([C@H]3Oc4cc(O)cc(O)c4C[C@H]3O)c2c1)c1cc(O)c(O)c(O)c1 [Theaflavin Monogallate] | – |
| 29 | – | O=c1cc(-c2ccccc2)oc2cc(O)c(O)c(O)c12 [Baicalein] | – |
| 35 | – | COc1ccc(-c2cc(=O)c3c(O)cc(O)cc3o2)cc1O [Diometin] | – |
| 34 | > 10 | O=C(O)C1=CC(=C(c2ccc(O)c(C(=O)O)c2)c2ccc(O)c(C(=O)O)c2)C=CC1=O [Aurin Tricarboxylic Acid] | change of fucosylation level ([1]; either concentration tested (data not shown)): did not alter the fucosylation level |
| – | – | Cc1cc2c(C(C)C)c(O)c(O)c(C=O)c2c(O)c1-c1c(C)cc2c(C(C)C)c(O)c(O)c(C=O)c2c1O [Gossypol] | IC50 [2]: > 10 µM; inhibition at 10 µM [2]: 26% |
| 93 | < 10 | O=C(OC[C@H]1O[C@@H](OC(=O)c2cc(O)c(O)c(OC(=O)c3cc(O)c(O)c(O)c3)c2)[C@H](OC(=O)c2cc(O)c(O)c(OC(=O)c3cc(O)c(O)c(O)c3)c2)[C@@H](OC(=O)c2cc(O)c(O)c(OC(=O)c3cc(O)c(O)c(O)c3)c2)[C@@H]1OC(=O)c1cc(O)c(O)c(OC(=O)c2cc(O)c(O)c(O)c2)c1)c1cc(O)c(O)c(OC(=O)c2cc(O)c(O)c(O)c2)c1 [Tannic Acid] | – |
| – | – | Oc1c(Cl)cc(Cl)c(Cl)c1Cc1c(O)c(Cl)cc(Cl)c1Cl [Hexachlorophene, reference compound] | IC50 [2]: > 10 µM; inhibition at 10 µM [2]: 40% |
| 70 | < 10 | Cc1ccc(C(=O)Nc2ccc(S(=O)(=O)O)c3cc(S(=O)(=O)O)cc(S(=O)(=O)O)c23)cc1NC(=O)c1cccc(NC(=O)Nc2cccc(C(=O)Nc3cc(C(=O)Nc4ccc(S(=O)(=O)O)c5cc(S(=O)(=O)O)cc(S(=O)(=O)O)c45)ccc3C)c2)c1 [Suramin, reference compound] | – |
| 28 | > 10 | O=C1c2c(O)cccc2Cc2cccc(O)c21 [Anthralin, reference compound] | – |
| 27 | > 10 | CCN(CC)CCNc1ccc(CO)c2sc3ccccc3c(=O)c12 [Hycanthone, reference compound] | – |

| Molecule | inhibition at 10 µM [2, 3] [%] | IC50 [2, 4] [µM] | further results |
| --- | --- | --- | --- |
| O=C1c2c(O)ccc(O)c2C(=O)c2c(NCCNCCO)ccc(NCCNCCO)c21 [Mitoxanthrone Hydrocloride, Mitoxanthrone Hydrochloride, reference compound] | 49 | > 10 | – |
| N.N.[Cl][Pt][Cl] [Cisplatin, reference compound] | – | > 10 | Primary Screen (10 μM), inhibition value [2, 3]: 60% |
| Carboplatin [reference compound] | – | > 10 | Primary Screen (10 μM), inhibition value [2, 3]: 45% |
